ChEMBL document CHEMBL5634150, “Design, synthesis and biological evaluation of novel dihydroquinolin-4(1H)-one derivatives as novel tubulin polymerization inhibitors” (Eur J Med Chem, 2023)
≈ marks a conversion by molar mass, not a printed value.

Columns and labels:
A549 [1] = experiment: Antiproliferative activity against human A549 cells assessed as inhibition of cell growth at 1 uM measured after 72 hrs by MTT assay relative to control; assay type: functional
A549 [2] = experiment: Antiproliferative activity against human A549 cells assessed as inhibition of cell growth at 0.1 uM measured after 72 hrs by MTT assay relative to control; assay type: functional
A549 [3] = experiment: Antiproliferative activity against human A549 cells assessed as inhibition of cell growth at 0.01 uM measured after 72 hrs by MTT assay relative to control; assay type: functional
MDA-MB-231 = experiment: Antiproliferative activity against human MDA-MB-231 cells assessed as inhibition of cell growth measured after 72 hrs by MTT assay; assay type: functional, cell-based; conditions: MDA-MB-231, 72 h
HepG2 = experiment: Antiproliferative activity against human HepG2 cells assessed as inhibition of cell growth measured after 72 hrs by MTT assay; assay type: functional, cell-based; conditions: HepG2, 72 h
A549 [4] = experiment: Antiproliferative activity against human A549 cells assessed as inhibition of cell growth measured after 72 hrs by MTT assay; assay type: functional, cell-based; conditions: A549, 72 h
K562 = experiment: Antiproliferative activity against human K562 cells assessed as inhibition of cell growth measured after 72 hrs by MTT assay; assay type: functional, cell-based; conditions: K562, 72 h
[5] = Antiproliferative activity against human HFL1 cells assessed as inhibition of cell growth measured after 72 hrs by MTT assay; assay type: toxicity, cell-based
[6] = Metabolic stability in mouse plasma assessed as compound remaining at 1 uM and measured at 3 hrs by LC-MS/MS analysis; assay type: ADME, cell-free; conditions: read-out: Stability
A549/TR = experiment: Antiproliferative activity against human A549/Taxol cells assessed as inhibition of cell growth measured after 72 hrs by MTT assay; assay type: functional, cell-based
[7] = Resistance index, ratio of IC50 for antiproliferative activity against human A549/Taxol cells to IC50 for antiproliferative activity against human A549 cells; assay type: functional
H22 = experiment: Antitumor activity against mouse H22 cells allografted in mouse model assessed as tumor growth inhibition at 20 mg/kg,iv administered once daily for 3 weeks relative to control; assay type: functional; conditions: H22, 504 h, read-out: TGI
[8] = Metabolic stability in mouse liver microsomes assessed as intrinsic clearance at 100 uM measure upto 60 mins in presence of NADPH by LC-MS/MS analysis; assay type: ADME, Microsome; conditions: 1 h
[9] = Metabolic stability in mouse plasma assessed as half life at 1 uM and measured upto 3 hrs by LC-MS/MS analysis; assay type: ADME, cell-free
[10] = Aqueous solubility of the compound by HPLC analysis; assay type: physicochemical; conditions: aqueous (not further specified)
[11] = Metabolic stability in mouse liver microsomes assessed as half life at 100 uM measure upto 60 mins in presence of NADPH by LC-MS/MS analysis; assay type: ADME, Microsome

| Structure (SMILES) | inhibition at 1 µM (A549 [1]) [%] | inhibition at 0.1 µM (A549 [2]) [%] | inhibition at 0.01 µM (A549 [3]) [%] | IC50 (MDA-MB-231) [nM] | IC50 (HepG2) [nM] | IC50 (A549 [4]) [nM] | IC50 (K562) [nM] | IC50 at 72 h [5] [nM] | other results |
| --- | --- | --- | --- | --- | --- | --- | --- | --- | --- |
| COc1cc2c(c(OC)c1OC)C(=O)CCN2Cc1ccccc1 | 23.2 | 6.72 | 8.31 | – | – | – | – | – | – |
| COc1ccc(N2CCC(=O)c3c2cc(OC)c(OC)c3OC)cc1O | 68.4 | 68.3 | 43.9 | 96 | 32 | 34 | 30 | 284 | – |
| COc1cc2c(c(OC)c1OC)C(=O)CCN2c1cccc(O)c1 | 50.1 | 36.8 | 15.8 | – | – | – | – | – | – |
| COc1ccc(N2CCC(=O)c3cc4c(cc32)OCO4)cc1O | 28 | 14.3 | 12.7 | – | – | – | – | – | – |
| CC(=O)Oc1ccc(C(c2ccc(OC(C)=O)cc2)c2ccccn2)cc1 [BISACODYL] | – | – | – | – | – | – | – | – | remaining at 3 h, 1 µM [6]: 0.003% |
| COc1cc2c(c(OC)c1OC)C(=O)CCN2c1ccc2cc[nH]c2c1 | 71.1 | 38.2 | 22.4 | 2890 | 2310 | 288 | 902 | 9750 | – |
| COc1ccc(N2CCC(=O)c3cc(OC)c(OC)cc32)cc1O | 73.3 | 44.2 | 20.4 | 902 | 672 | 280 | 226 | 3300 | – |
| COc1cc2c(c(OC)c1OC)C(=O)CCN2c1ccccc1 | 31.1 | 12.3 | 6.13 | – | – | – | – | – | – |
| COc1cc2c(c(OC)c1OC)C(=O)CCN2c1ccc2c(c1)OCO2 | 65.3 | 44.8 | 22.6 | – | – | – | – | – | – |
| COc1cc2c(c(OC)c1OC)C(=O)CCN2c1ccc(O)cc1 | 29.9 | 15.1 | 9.57 | – | – | – | – | – | – |
| COc1cc(N2CCC(=O)c3c2cc(OC)c(OC)c3OC)cc(OC)c1OC | 28.4 | 19.4 | 12.3 | – | – | – | – | – | – |
| COc1ccc2c(c1)C(=O)CCN2c1ccc(OC)c(O)c1 | 66.6 | 40.2 | 32.5 | – | – | – | – | – | – |
| COc1cc(N2CCC(=O)c3cc4c(cc32)OCO4)cc(OC)c1OC | 46.6 | 29.2 | 19.9 | – | – | – | – | – | – |
| COc1cc2c(c(OC)c1OC)C(=O)CCN2c1ccc(C)cc1 | 64.1 | 41.7 | 21 | – | – | – | – | – | – |
| COc1cc2c(c(OC)c1OC)C(=O)CCN2Cc1ccc(F)cc1 | 32.1 | 16.3 | 12 | – | – | – | – | – | – |
| COc1cc2c(c(OC)c1OC)C(=O)CCN2c1ccc2c(ccn2C)c1 | 79.2 | 78.6 | 54.3 | 102 | 72 | 11 | 25 | 102 | – |
| CC(=O)O[C@H]1C(=O)[C@@]2(C)[C@H]([C@H](OC(=O)c3ccccc3)[C@]3(O)C[C@H](OC(=O)[C@H](O)[C@@H](NC(=O)c4ccccc4)c4ccccc4)C(C)=C1C3(C)C)[C@]1(OC(C)=O)CO[C@@H]1C[C@@H]2O [PACLITAXEL] | – | – | – | – | – | 22 | – | – | IC50 (A549/TR): 602 nM; Ratio IC50 [7]: 27.36 |

| Structure (SMILES) | inhibition at 1 µM (A549 [1]) [%] | inhibition at 0.1 µM (A549 [2]) [%] | inhibition at 0.01 µM (A549 [3]) [%] | IC50 (MDA-MB-231) [nM] | IC50 (HepG2) [nM] | IC50 (A549 [4]) [nM] | IC50 (K562) [nM] | IC50 at 72 h [5] [nM] | other results |
| --- | --- | --- | --- | --- | --- | --- | --- | --- | --- |
| COc1ccc(/C=C\c2cc(OC)c(OC)c(OC)c2)cc1O [COMBRETASTATIN A4] | 78.4 | 76.2 | 76.9 | 20 | 33 | 11 | 4 | 91 | inhibition in vivo at 20 mg/kg (H22): 59.2%; CLH [8]: > 277 µL/min/mg; half-life at 1 µM [9]: > 3 h; IC50 (A549/TR): 76 nM; remaining at 3 h, 1 µM [6]: 97.8%; solubility [10]: 0.96 µg/mL (≈ 3.03 µM); half-life at 100 µM [11]: < 5 min |
| COc1cc2c(c(OC)c1OC)C(=O)CCN2c1c[nH]c2ccccc12 | 51.7 | 31.4 | 16.6 | – | – | – | – | – | – |
| COc1ccc(N2CCC(=O)c3ccccc32)cc1O | 58.5 | 54.7 | 38.2 | – | – | – | – | – | – |
| COc1ccc(N2CCCc3c2cc(OC)c(OC)c3OC)cc1O | 81 | 45 | 35 | 1060 | 668 | 276 | 297 | 2660 | – |
| COc1cc2c(c(OC)c1OC)C(=O)CCN2c1cccc2[nH]ccc12 | 35.9 | 31.2 | 11.6 | – | – | – | – | – | – |
| COc1ccc(CN2CCC(=O)c3c2cc(OC)c(OC)c3OC)cc1O | 17.7 | 13 | 13 | – | – | – | – | – | – |
| COc1cc2c(cc1O)N(c1cc(OC)c(OC)c(OC)c1)CCC2=O | 54.4 | 45.6 | 33.5 | – | – | – | – | – | – |
| COc1ccc(N2CCC(=O)c3c2cc(OC)c(OC)c3OC)cn1 | 45.3 | 30.4 | 18.8 | – | – | – | – | – | – |
| COc1cc2c(c(OC)c1OC)C(=O)CCN2c1ccc(O)c(O)c1 | 35 | 22.9 | 21.9 | – | – | – | – | – | – |
| COc1cc2c(c(OC)c1OC)C(=O)CCN2Cc1ccc(C(F)(F)F)cc1 | 28.6 | 22.1 | 6.29 | – | – | – | – | – | – |
| COc1ccc(N2CCC(=O)c3c2cc(OC)c(OC)c3OC)cc1 | 74.5 | 69.3 | 34 | 107 | 77 | 72 | 34 | 370 | – |
| COc1cc2c(c(OC)c1OC)C(=O)CCN2c1ccc2ccn(C)c2c1 | 61 | 53.4 | 13.2 | 1140 | 648 | 170 | 147 | 2760 | – |
| COc1cc2c(c(OC)c1OC)C(=O)CCN2c1ccc2[nH]ccc2c1 | 72 | 69 | 30.1 | 912 | 855 | 305 | 182 | 2980 | – |
| COc1cc2c(c(OC)c1OC)C(=O)CCN2c1cccc2c1ccn2C | 74.2 | 56 | 19.2 | 33 | 21 | 63 | 7 | 99 | – |
| C[C@]12CC[C@H]3[C@@H](CCC4=CC(=O)CC[C@@]43C)[C@@H]1CC[C@@H]2O [TESTOSTERONE] | – | – | – | – | – | – | – | – | CLH [8]: 436 µL/min/mg |
| COc1ccc(N2CCC(=O)c3c2cc(OC)c(OC)c3OC)cc1OC | 41 | 17.6 | 11 | – | – | – | – | – | – |
| COc1cc2c(c(OC)c1OC)C(=O)CCN2c1ccc2c(c1)OCCO2 | 72.4 | 44.9 | 35.6 | 237 | 163 | 216 | 81 | 303 | – |
